Values after ≈ are worked out from the molar mass of the structure shown. Read-outs that look alike come from different tables or passages of the source.
Tests used:
[1] = cited from earlier work
[2] = U.V. irradiation: biocide remaining
Method: (§1) The loaded biocides, together with the stock solutions, were spread on petri dishes and either placed in an incubator at 60° C. or exposed to U.V. irradiation in a Microscal unit (Miscoscal Limited, London) fitted with a 500 W high pressure mercury/tungsten lamp (wavelength>300 nm) operating at temperature 50° C. and a relative humidity in the region of 50%. […] Samples were withdrawn from the petri dishes undergoing thermal treatment and exposure to U.V. irradiation on a regular basis over a period in the region of 50 days. The amount of biocide remaining in each withdrawn sample was determined at the time of withdrawal using second derivative U.V.-visible Spectroscopy. The amount of biocide remaining in the stock solutions was determined by Gas Chromatography Mass Spectrometry. Relative peak heights corresponding to the residual parts of OIT, CIT and MIT were used to determine the concentrations of biocide in each sample.

[3] = Thermal ageing at 60° C.: biocide remaining; details: Thermal Ageing 60° C.
Method: as §1

[4] = system: Cladosporium cladosporioides; assay: Water leaching of paint discs: zone of inhibition before and after 24 hours leach; format: cell-based; details: acrylic high build paint; for Zone of Inhibition After Leaching: 24 hours water leach
Method: The method allows an assessment of the level of protection afforded by incorporating a biocide into a paint formulation. Filter discs (Whatman International Limited, Maidstone, Kent), Type 54, hardened 42.5 mm diameter were brush painted on one side of the disc with the test paints (24 hours between coats, 3 replicates per paint) to give an average loading of 0.05 g dried paint. The painted discs were cured at 60° C. for 2 days. One set of discs is then washed with a large volume of distilled water (20 liters) under controlled flow for 24 hours at ambient temperatures.
A freeze dried ampoule of Cladosporium cladosporioides (strain no. FS33 ex. Paint Research Association, Teddington, UK) was revived on potato dextrose agar (Oxoid Limited, Basingstoke, UK). A spore innoculum was prepared from the resultant sporing culture (5-7 days growth at 25° C.) by adding 5 ml of sterile distilled water to the surface of the culture on the agar and gently rubbing the surface with a sterile loop to dislodge the spores' mycelium. The resultant suspension was filtered through sterile wool and the filtrate used to seed molten (45° C.) potato dextrose agar prior to pouring into sterile Petri dishes.
Each painted disc was placed on the surface of the seeded agar plate, and the plates placed in a fridge (6-8° C.) for 24 hours to allow diffusion of the biocide. After this period, they were transferred to an incubator at 25° C. for five days. The diameter of the disc, plus any zone of inhibition (no fungal growth) around the discs was measured. An average of the three replicates is taken as a data point.
The biocidal efficiency of the two carriers (SD 2209 and SD 1866) loaded, at 30% by weight, with OIT and DCOIT in the acrylic high build formulation was compared before, and after, a 24 hours leach using procedure (ix) described hereinbefore. The paints containing the biocide carrying particles and those where the biocide was incorporated as the free biocide where used in the example.

[5] = system: Cladosporium cladosporioides; assay: Surface growth on painted discs after a further 14 days incubation; format: cell-based; details: biocide 300 ppm; for Zone of Inhibition After Leaching (surface of paint discs examined for growth): after water leaching
Method: To further distinguish performance the inoculated petri dishes containing the painted discs were incubated for a further 14 days so as to examine the extent of encroachment of the fungi into the surface of the paint film. The dishes were removed from the incubator and the surface of the paint discs examined for growth.

[6] = system: standard mixed inoculum of BS 3900: Part G6: 1989 with Alternaria altarnata; assay: Prolonged protection on paint panels (BS 3900: Part G6: 1989); format: cell-based; details: weathered panels; for Fungal growth rating % Cover D28: Day 28; for Fungal growth rating % Cover D84: Day 84
Method: Candidate carrier materials dispersed in water borne acrylic emulsion paint were subjected to the procedure of BS 3900: Part G6: 1989 to assess their long term fungicidal efficiency when compared with the biocide added directly to the paint.
Masterboard panels (150 mm×150 mm) were brush coated on one side with the test paints (2 coats, 24 hours between coats) and cured at 60° C. for two days. The coated panels were then weathered in a QUV apparatus (The Q-Panel Co. Bolton, UK) under the following conditions: 125±5 hours exposure to UVA (340 nm) at 40° C. with 1 hour water spray at approximately 24 hour intervals (5 in total). During the water spray the temperature cools to about 20° C.
After weathering the panels were cut into two equal samples and subjected to the procedure described in BS 3900: Part G6:1989. The control paint was the test paint without biocide. Alternaria altarnata was included in the standard mixed inoculum of BS 3900: Part G6: 1989.
Visual examination of the panels was carried out after 28, 36 and 84 days. In accordance with the standard procedure, the percentage cover of each panel by fungal growth was assessed.
Following on from the observations of Example 4, the two carriers SD 2209 and SD 1866 loaded, at 30% by weight, with OIT and DCOIT were incorporated into the paint formulation specified in Example 4 and subjected to BS 3900: Part G6 as described in procedure (x) hereinbefore to assess their long term film fungicidal efficiency in comparison with OIT and DCOIT added directly to the paint.
Masterboard panels (150 mm×150 mm) were brush coated on one side with the test paints (2 coats, 24 hours between coats) and cured at 60° C. for two days. The coated panels were then weathered in a QUV apparatus as described hereinbefore in procedure (x). After weathering the panels were cut into two equal samples and subjected to the procedure described in BS 3900: Part G6: 1989. The panels were exposed for 28, 36, and 84 days, in accordance with the standard procedure, and the percentage cover of each panel by fungal growth was assessed at these stages.

[7] = system: standard mixed inoculum of BS 3900: Part G6: 1989 with Alternaria altarnata; assay: as above; format: cell-based; details: weathered panels
Aureobasidium pullulans = assay: Minimum Inhibition Concentration (MIC); format: cell-based
Method: The retention factor, R, referred to above is determined from the equation R=A/P, where A represents the percentage active ingredient by weight remaining in the pore system after contacting with water according to the conditions defined herein and P represents the potency (Minimum Inhibition Concentration in mg of active ingredient per liter) of the biocide determined with respect to the reference microorganism Aureobasidium pullulans using the procedure defined herein.
The usefulness of the inorganic carrier particle will depend on the particular biocide being used, its effectiveness at various activity levels and the quantity of biocide (active ingredient) adsorbed and retained in the pore system. […]
The minimum inhibition concentration (MIC) is a measure of the potency of a biocide and comprises the minimum concentration (ppm) of a biocide active or formulation (normally quoted in terms of the active ingredient) determined experimentally in vitro to prevent the growth of a pure culture of a reference microorganism. […]
A standardised culture of the microbe under lest is prepared. […] The concentration at which no growth is detected is the minimum inhibition concentration (MIC) for that particlar biocide and reference organism. […]

[8] = 50.98 %
Method: as §1

[9] = 50.98 %; remark: listed apart in the source
Method: as §1

Structure (SMILES)	water solubility relative to OIT, in words [1]	amount of original biocide remaining (MIT, CIT, MIT/CIT) ([2]; 0 days)	amount of original biocide remaining (MIT, CIT, MIT/CIT) ([2]; 7 days)	amount of original biocide remaining (MIT, CIT, MIT/CIT) ([2]; 25 days)	amount of original biocide remaining (MIT, CIT, MIT/CIT) ([2]; 32 days)	amount of original biocide remaining (MIT, CIT, MIT/CIT) ([2]; 39 days)	amount of original biocide remaining (MIT, CIT, MIT/CIT) ([3]; 0 days)	amount of original biocide remaining (MIT, CIT, MIT/CIT) ([3]; 7 days)	amount of original biocide remaining (MIT, CIT, MIT/CIT) ([3]; 12 days)	amount of original biocide remaining (MIT, CIT, MIT/CIT) ([3]; 18 days)	Zone of Inhibition Before Leaching ([4]; biocide 300 ppm)	Zone of Inhibition After Leaching ([4]; biocide 300 ppm)	Zone of Inhibition Before Leaching ([4]; biocide 1,200 ppm)	Zone of Inhibition After Leaching ([4]; biocide 1,200 ppm)	Zone of Inhibition Before Leaching ([4]; biocide 4,000 ppm)	Zone of Inhibition After Leaching ([4]; biocide 4,000 ppm)	Zone of Inhibition Before Leaching (surface of paint discs examined for growth) [5]	Zone of Inhibition After Leaching (surface of paint discs examined for growth) [5]	Fungal growth rating % Cover D28 ([6]; biocide 300 ppm)	Fungal growth rating % Cover D84 ([6]; biocide 300 ppm)	further results
Cn1sc(Cl)cc1=O [CIT, 5-Chloro-2-Methyl-4-isothiazolin-3-one]	more water soluble than OIT	100	0	0	0	0	100	80	40	30											amount of original biocide remaining (MIT, CIT, MIT/CIT) ([3]; 26 days): 0
CCCCCCCCn1sc(Cl)c(Cl)c1=O [DCOIT, 4,5-Dichloro-2-Octyl-4-Isothiazolin-3-one]											22 mm	OVERGROWTH	25 mm	1 mm	38 mm	2 mm	None	Growth	23 % cover	85 % cover	Fungal growth rating % Cover D28 ([6]; biocide 1,200 ppm): 8 % cover; Fungal growth rating % Cover D84 ([6]; biocide 1,200 ppm): 68 % cover; Fungal growth rating % Cover D28 ([6]; biocide 4,000 ppm): 0 % cover; Fungal growth rating % Cover D84 ([6]; biocide 4,000 ppm): 5 % cover; Fungal growth rating % Cover D56 ([7]; biocide 300 ppm): 85 % cover; Fungal growth rating % Cover D56 ([7]; biocide 1,200 ppm): 55 % cover; Fungal growth rating % Cover D56 ([7]; biocide 4,000 ppm): 0 % cover
Cn1sccc1=O [MIT, 2-Methyl-4-isothiazolin-3-one]	more water soluble than OIT	100	78	69	62	50	100	95	90	80											amount of original biocide remaining (MIT, CIT, MIT/CIT) ([2]; 55 days): 24; amount of original biocide remaining (MIT, CIT, MIT/CIT) ([3]; 40 days): 50
CCCCCCCCn1sccc1=O [OIT, 2-Octyl-4-Isothiazolin-3-one]											32 mm	OVERGROWTH	>42 mm	1 mm	>42 mm	1 mm	None	Growth	35 % cover	85 % cover	MIC (Aureobasidium pullulans; Aureobasidium pullulans, reference microorganism Aureobasidium pollulens): 36 µg/mL (≈ 169 µM); Minimum Inhibition Concentration (MIC) (Aureobasidium pullulans; reference microorganism Aureobasidium pullulans): 36 mg of active ingredient per liter; Fungal growth rating % Cover D28 ([6]; biocide 1,200 ppm): 3 % cover; Fungal growth rating % Cover D84 ([6]; biocide 1,200 ppm): 35 % cover; Fungal growth rating % Cover D28 ([6]; biocide 1,400 ppm): 0 % cover; Fungal growth rating % Cover D84 ([6]; biocide 1,400 ppm): 5 % cover; amount of original biocide remaining (OIT) ([8]; 0 h): 100; amount of original biocide remaining (OIT) ([8]; 288 h): 78; amount of original biocide remaining (OIT) ([8]; 432 h): 65; amount of original biocide remaining (OIT) ([8]; 960 h): 50; amount of original biocide remaining (OIT) ([9]; 0 h): 100; amount of original biocide remaining (OIT) ([9]; 336 h): 17; amount of original biocide remaining (OIT) ([9]; 1008 h): 1; Fungal growth rating % Cover D56 ([7]; biocide 300 ppm): 85 % cover; Fungal growth rating % Cover D56 ([7]; biocide 1,200 ppm): 35 % cover; Fungal growth rating % Cover D56 ([7]; biocide 1,400 ppm): 0 % cover
